This note sets out measurements from patent US9051299B2, “Imidazolyl methyl piperidine T-type calcium channel antagonists” (Merck Sharp & Dohme Corp., priority 2012, dated 2015).

In assay [1] the target is T1, T-type calcium channel A1i (alpha-1I, CaV 3.3) (Homo sapiens, UniProt Q9P0X4).
T1 construct: expressed in transfected cells; host or cells: HEK 293 cells, tetracycline-inducible expression (Zeocin/Blasticidin selection)
As to the kind of experiment: FLIPR Ca2+ Flux Assay, hyperpolarized state. The class given is cell-based. The following applies: measure of the ability to inhibit T-type calcium channel, read-out: Ali Hyperpolarized. Background: A change in cytosolic calcium serves as a functional read-out for many receptors and channels.

In assay [2] the target is T1, T-type calcium channel A1i (alpha-1I, CaV 3.3). In words: FLIPR Ca2+ Flux Assay, depolarized state. The following applies: measure of the ability to inhibit T-type calcium channel. It counts as cell-based.

T1 sequence (Q9P0X4 whole entry): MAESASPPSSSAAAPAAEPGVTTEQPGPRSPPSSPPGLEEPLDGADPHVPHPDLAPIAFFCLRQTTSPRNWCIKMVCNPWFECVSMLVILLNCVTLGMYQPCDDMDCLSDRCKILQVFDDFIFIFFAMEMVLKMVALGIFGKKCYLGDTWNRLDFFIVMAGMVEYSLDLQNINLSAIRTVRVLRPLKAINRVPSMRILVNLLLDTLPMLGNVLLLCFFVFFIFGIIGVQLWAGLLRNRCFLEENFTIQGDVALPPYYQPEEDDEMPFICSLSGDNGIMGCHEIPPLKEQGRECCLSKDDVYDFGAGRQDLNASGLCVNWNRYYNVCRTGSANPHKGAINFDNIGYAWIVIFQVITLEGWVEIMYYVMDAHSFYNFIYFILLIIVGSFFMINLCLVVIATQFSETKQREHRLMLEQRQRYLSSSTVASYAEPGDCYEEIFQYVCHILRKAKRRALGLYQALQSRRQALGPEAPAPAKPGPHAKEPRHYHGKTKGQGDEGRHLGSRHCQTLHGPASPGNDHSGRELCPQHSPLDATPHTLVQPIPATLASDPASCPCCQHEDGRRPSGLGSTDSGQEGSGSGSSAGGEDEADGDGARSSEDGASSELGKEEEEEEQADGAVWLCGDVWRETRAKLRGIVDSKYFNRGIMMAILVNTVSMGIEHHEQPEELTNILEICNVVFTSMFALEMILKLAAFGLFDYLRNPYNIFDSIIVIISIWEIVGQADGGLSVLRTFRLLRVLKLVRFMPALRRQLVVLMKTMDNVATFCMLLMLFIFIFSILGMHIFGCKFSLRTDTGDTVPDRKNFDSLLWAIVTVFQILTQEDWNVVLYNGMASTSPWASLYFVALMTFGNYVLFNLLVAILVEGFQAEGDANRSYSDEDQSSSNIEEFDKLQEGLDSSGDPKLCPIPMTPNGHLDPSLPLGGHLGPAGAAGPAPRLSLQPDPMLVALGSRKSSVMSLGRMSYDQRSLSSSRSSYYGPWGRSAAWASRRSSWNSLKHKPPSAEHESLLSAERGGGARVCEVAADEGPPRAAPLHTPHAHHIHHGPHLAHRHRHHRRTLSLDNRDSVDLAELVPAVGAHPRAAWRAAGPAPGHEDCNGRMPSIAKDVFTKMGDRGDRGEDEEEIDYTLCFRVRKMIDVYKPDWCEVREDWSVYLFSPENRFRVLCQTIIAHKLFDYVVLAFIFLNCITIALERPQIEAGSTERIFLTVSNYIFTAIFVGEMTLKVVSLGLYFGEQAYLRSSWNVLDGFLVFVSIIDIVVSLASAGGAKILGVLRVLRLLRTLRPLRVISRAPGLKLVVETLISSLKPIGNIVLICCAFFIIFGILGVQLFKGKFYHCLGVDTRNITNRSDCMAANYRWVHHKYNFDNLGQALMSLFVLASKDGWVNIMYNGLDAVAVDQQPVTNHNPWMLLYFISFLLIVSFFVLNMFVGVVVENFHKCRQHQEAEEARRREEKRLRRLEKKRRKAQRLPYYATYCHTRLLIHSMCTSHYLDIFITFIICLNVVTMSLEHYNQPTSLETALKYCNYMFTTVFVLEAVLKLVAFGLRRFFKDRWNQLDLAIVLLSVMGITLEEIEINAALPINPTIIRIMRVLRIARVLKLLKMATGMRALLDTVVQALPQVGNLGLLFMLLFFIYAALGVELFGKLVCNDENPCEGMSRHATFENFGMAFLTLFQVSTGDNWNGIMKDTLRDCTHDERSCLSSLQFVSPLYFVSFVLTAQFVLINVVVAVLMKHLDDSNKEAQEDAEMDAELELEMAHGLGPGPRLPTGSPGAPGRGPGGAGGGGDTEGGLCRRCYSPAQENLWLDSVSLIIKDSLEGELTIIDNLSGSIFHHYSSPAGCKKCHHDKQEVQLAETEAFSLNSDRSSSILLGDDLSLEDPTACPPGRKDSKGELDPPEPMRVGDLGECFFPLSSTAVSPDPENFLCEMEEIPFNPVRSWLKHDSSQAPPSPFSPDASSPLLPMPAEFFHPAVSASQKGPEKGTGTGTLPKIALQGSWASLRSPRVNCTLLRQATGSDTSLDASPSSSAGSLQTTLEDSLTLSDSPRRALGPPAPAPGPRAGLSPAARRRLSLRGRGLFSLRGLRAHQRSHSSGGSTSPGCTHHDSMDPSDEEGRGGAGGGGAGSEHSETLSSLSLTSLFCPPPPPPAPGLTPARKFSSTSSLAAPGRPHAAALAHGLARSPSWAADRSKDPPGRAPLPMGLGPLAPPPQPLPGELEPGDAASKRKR

For `O=C(c1cccc(C(F)(F)F)c1)C1CCN(Cc2cnc(-c3ccccc3)[nH]2)CC1` [Example 1, (1-((2-Phenyl-1H-imidazol-5-yl)methyl)piperidin-4-yl)(3-(trifluoromethyl)phenyl)-methanone], the IC50 in assay [1] was determined as 0.07 µM; in assay [2], 0.742 µM.
On the same counts, the results for `O=C(c1ccc(F)cc1)C1CCN(Cc2c[nH]c(-c3ccccc3)n2)CC1` [Example 2] are 0.242 µM and 3.18 µM.
For `O=C(c1cccc(Cl)c1)C1CCN(Cc2c[nH]c(-c3ccccc3)n2)CC1` [Example 3, (3-chlorophenyl)-[1-[(2-phenyl-1H-imidazol-4-yl)methyl]-4-piperidyl]methanone] the same measures were 0.129 µM and 2.09 µM.
On the same counts, the results for `O=C(c1ccc2nonc2c1)C1CCN(Cc2c[nH]c(-c3ccccc3)n2)CC1` [Example 4, 2,1,3-benzoxadiazol-5-yl-[1-[(2-phenyl-1H-imidazol-4-yl)methyl]-4-piperidyl]methanone] are 0.155 µM and 2.87 µM.
For `O=C(c1ccc(F)c(F)c1)C1CCN(Cc2c[nH]c(-c3ccccc3)n2)CC1` [Example 5, (3,4-difluorophenyl)-[1-[(2-phenyl-1H-imidazol-4-yl)methyl]-4-piperidyl]methanone], the IC50 in assay [1] was 0.686 µM; in assay [2], 4.06 µM.
For `COc1ccc(C(=O)C2CCN(Cc3c[nH]c(-c4ccccc4)n3)CC2)cc1` [Example 6, (4-methoxyphenyl)-[1-[(2-phenyl-1H-imidazol-4-yl)methyl]-4-piperidyl]methanone] the same measures were 1.06 µM and more than 10 µM.
For `Cc1ccc(C(=O)C2CCN(Cc3c[nH]c(-c4ccccc4)n3)CC2)cc1` [Example 7, [1-[(2-phenyl-1H-imidazol-4-yl)methyl]-4-piperidyl]-(p-tolyl)methanone] the same measures were 0.644 µM and 7.09 µM.
On the same counts, the results for `Cc1cccc(C(=O)C2CCN(Cc3c[nH]c(-c4ccccc4)n3)CC2)c1` [Example 8, m-tolyl-[1-[(2-phenyl-1H-imidazol-4-yl)methyl]-4-piperidyl]methanone] are 0.313 µM and 4.62 µM.
Regarding `Cc1nc(CN2CCC(C(=O)c3cccc(C(F)(F)F)c3)CC2)c[nH]1` [Example 9, [1-[(2-methyl-1H-imidazol-4-yl)methyl]-4-piperidyl]-[3-(trifluoromethyl)phenyl]methanone], the IC50 in assay [1] is 7.6 µM; in assay [2] it was more than 10 µM.
Take `CCc1nc(C)c(CN2CCC(C(=O)c3cccc(C(F)(F)F)c3)CC2)[nH]1` [Example 10, [1-[(2-ethyl-4-methyl-1H-imidazol-5-yl)methyl]-4-piperidyl]-[3-(trifluoromethyl)phenyl]methanone]: the IC50 in assay [1] is 6.9 µM; in assay [2] it was more than 10 µM.
